Data published in PMC7006908 (PLoS ONE, 2020).
Where “and” joins values, the source holds several entries; their conditions need not be identical. Identical values can stand only once. Like-named read-outs stand apart in the source and are kept apart here.

How the values were obtained:
[1] = LC-MS/MS quantification of Cmin in plasma samples from breast cancer patients (clinical study CRO-2018-83); type: in vivo, human; conditions: for concentration at 15 h / concentration at 30 h: human, plasma, oral; for concentration at 15 h: patient 7, sample 9, PALBO 125 mg/day; for concentration at 30 h: patient 8, sample 10, RIBO 600 mg/day + LETRO 2.5 mg/day
Description: Preparation of calibration curve and QCs samples was conducted through the following steps: 1) 5 μL of working solutions were added to 95 μL of blank human plasma (dilution 1:20) and vortexed for 10 s; 2) a 10 μL-aliquot of this mix was added with 80 μL of cold IS working solution (see “Standard solutions preparation” section), vortexed and then centrifuged for 15 min at 16200 g and 4°C; 3) 70 μL of the supernatant were transferred to a polypropylene tube for the following analysis. […] The preparation of patients’ samples was conducted as following: patient plasma was thawed at room temperature, vortexed for 10 s and centrifuged, for 10 min, at 3000 g and 4°C; 10 μL of plasma was then treated according to steps 2) and 3).
The HPLC system was a SIL-20AC XR auto-sampler and LC-20AD UFLC XR pumps (Shimadzu, Tokyo, Japan). The mobile phases (MP) consisted of ultrapure water with 0.1% HCOOH (phase A) and methanol/isopropanol (9:1, v/v) with 0.1% HCOOH (phase B). The chromatographic separation was obtained on the Luna Omega Polar C18 column ([…], 100 Å, 50 x 2.1 mm) coupled with a Security Guard Cartridge (Polar, C18, 4 x 2.0 mm), both provided by Phenomenex (Castel Maggiore (BO), Italy). The mass spectrometry system used for the detection was an API 4000 triple quadrupole (AB SCIEX, Massachusetts, USA) with a TurboIonSpray source operating in positive ion mode. To optimize source and compound dependent parameters, solutions of each analyte at the concentration of 100 ng/mL were used with a flow rate of 20 μL/min. Data were processed with Analyst 1.6.3 and the quantification of the peaks was done with MultiQuant 2.1 (software package AB SCIEX).
The exclusion criteria were to be non-collaborative and/or unreliable patients and refusal of informed consent. Patients were asked to periodically (every two months) collect plasma samples for the estimation of PALBO or RIBO and/or LETRO Cmin during their therapy treatment.
Plasma was obtained immediately by centrifugation of the blood samples at 3000 g for 10 min at 4°C. Then the obtained plasma was split into two independent aliquots and stored at -80°C in two different freezers.
At present, each of the 10 patients’ samples collected were quantified in 2 separate runs during 2 different working days, to further assess the reproducibility of the proposed method. In fact, as recently introduced in the last version of the FDA guideline, incurred samples re-analysis (ISR) is necessary to show the reliability of the reported analyte concentrations obtained with a bioanalytical method. ISR is conducted by repeating the analysis of a subset of patients’ samples in separate runs. The two analyses can be considered equivalent if the percentage difference [expressed as: (repeat-original)*100/mean] between the first and the second concentration measured is within ±20% for at least 67% of the samples [23, 24].

[2] = parameters: method as in PMID 29862467; conditions: exposure-efficacy analysis in patients; cited from earlier work
[3] = Stability of deproteinized QCs in autosampler at 4 °C; type: physicochemical; conditions: for Acc. %, T = 72 h in autosampler (4°C): % of nominal
Description: (§1) Stability tests were conducted using QCs prepared in triplicate at each concentration (L, M, H): bench-top stability was investigated after 4 h at room temperature; stability of the deproteinized QCs was evaluated in autosampler set at 4 °C re-analysing the samples 24, 48, and 72 h after the first injection; freeze/thaw stability was assessed by analysing three freshly prepared aliquots of each QCs concentration, and then again after one and two freeze/thaw cycles.

[4] = Long term stability in human plasma at -80°C; type: in vitro ADME; conditions: for Acc. %, stored at -80ºC over 2 months (plasma): % of nominal
[5] = Bench-top stability in human plasma, 4 h at room temperature; type: in vitro ADME; conditions: for Acc. %, T = 4h (RT): % of nominal
Description: as §1

[6] = Long term stability of working solutions in methanol at -20°C; type: physicochemical; conditions: for Acc. %, stored at -20ºC over 2 months (methanol): % of nominal
[7] = cited from earlier work
[8] = deproteinized QC high: nominal 200.00 PALBO / 8000.00 RIBO / 400.00 LETRO ng/mL
[9] = deproteinized QC low: nominal 0.50 PALBO / 20.00 RIBO / 1.00 LETRO ng/mL
[10] = deproteinized QC medium: nominal 20.00 PALBO / 800.00 RIBO / 40.00 LETRO ng/mL
[11] = QC high: nominal 200.00 PALBO / 8000.00 RIBO / 400.00 LETRO ng/mL
[12] = QC low: nominal 0.50 PALBO / 20.00 RIBO / 1.00 LETRO ng/mL
[13] = QC medium: nominal 20.00 PALBO / 800.00 RIBO / 40.00 LETRO ng/mL
[14] = plasma QC high: nominal 200.00 PALBO / 8000.00 RIBO / 400.00 LETRO ng/mL
[15] = plasma QC low: nominal 0.50 PALBO / 20.00 RIBO / 1.00 LETRO ng/mL
[16] = plasma QC medium: nominal 20.00 PALBO / 800.00 RIBO / 40.00 LETRO ng/mL

concentration at 15 h ([1]; LETRO 2.5 mg/day, last pill intake 15 h before sampling, read-out: I quantif. plasma concentration (Cmin)): 2.8 ng/mL | concentration at 15 h ([1]; LETRO 2.5 mg/day, reanalysis in second run, read-out: II quantif. plasma concentration (Cmin)): 2.9 ng/mL | concentration at 30 h ([1]; 30 h from last pills intake, read-out: I quantif. plasma concentration (Cmin)): 46.8 ng/mL | concentration at 30 h ([1]; reanalysis in second run, read-out: II quantif. plasma concentration (Cmin)): 46.9 ng/mL | II quantif. plasma concentration (Cmin) ([1]; patient 6, sample 8, PALBO 125 mg/day, LETRO 2.5 mg/day, reanalysis in second run): 67.8 ng/mL | Mean ± SD measured concentration, T = 72 h in autosampler (4°C) [3, 8]: 426.23 ± 4.43 ng/mL | Acc. %, T = 72 h in autosampler (4°C) [3, 8]: 106.6% | Mean ± SD measured concentration, T = 72 h in autosampler (4°C) [3, 9]: 0.94 ± 0.07 ng/mL | Acc. %, T = 72 h in autosampler (4°C) [3, 9]: 93.9% | Mean ± SD measured concentration, T = 72 h in autosampler (4°C) [3, 10]: 44.45 ± 0.19 ng/mL | Acc. %, T = 72 h in autosampler (4°C) [3, 10]: 111.1% | Mean ± SD measured concentration, stored at -80ºC over 2 months (plasma) [4, 11]: 386.66 ± 6.61 ng/mL | Acc. %, stored at -80ºC over 2 months (plasma) [4, 11]: 96.7% | Mean ± SD measured concentration, stored at -80ºC over 2 months (plasma) [4, 12]: 0.88 ± 0.01 ng/mL | Acc. %, stored at -80ºC over 2 months (plasma) [4, 12]: 88.3% | Mean ± SD measured concentration, stored at -80ºC over 2 months (plasma) [4, 13]: 39.58 ± 0.90 ng/mL | Acc. %, stored at -80ºC over 2 months (plasma) [4, 13]: 99.0% | Mean ± SD measured concentration, T = 4h (RT) [5, 14]: 372.54 ± 24.58 ng/mL | Acc. %, T = 4h (RT) [5, 14]: 93.1% | Mean ± SD measured concentration, T = 4h (RT) [5, 15]: 0.88 ± 0.06 ng/mL | Acc. %, T = 4h (RT) [5, 15]: 88.2% | Mean ± SD measured concentration, T = 4h (RT) [5, 16]: 37.95 ± 1.78 ng/mL | Acc. %, T = 4h (RT) [5, 16]: 94.9% | Mean ± SD measured concentration, stored at -20ºC over 2 months (methanol) [6, 11]: 413.47 ± 6.07 ng/mL | Acc. %, stored at -20ºC over 2 months (methanol) [6, 11]: 103.4% | Mean ± SD measured concentration, stored at -20ºC over 2 months (methanol) [6, 12]: 1.05 ± 0.03 ng/mL | Acc. %, stored at -20ºC over 2 months (methanol) [6, 12]: 105.1% | Mean ± SD measured concentration, stored at -20ºC over 2 months (methanol) [6, 13]: 44.12 ± 1.25 ng/mL | Acc. %, stored at -20ºC over 2 months (methanol) [6, 13]: 110.3%
SMILES: N#Cc1ccc(C(c2ccc(C#N)cc2)n2cncn2)cc1 [LETRO, letrozole]
LETRO plasma concentration associated with longer time to tumour progression [2]: ≥ 85.6 ng/mL | LETRO mean plasma concentration (±SD) ([7]; ref 11 (Beer et al.)): 107.0 ng/mL and 107.0 ± 62.9 ng/mL | LETRO mean plasma concentration (range) ([7]; ref 22 (Desta et al.)): 89.7 (28.4–349.2) ng/mL
